Key:
[1] = tested on: isolated porcine aortic adventitia; experiment: Uniaxial tensile measurements on isolated porcine aortic adventitia, irradiated vs non-irradiated; conditions: 0.1% w/v in saline, UV-A 365 nm, 45 mW/cm^2, 10 minutes, both sides, n=30
Description: Twenty-five porcine aortas from the abdominal region were used in this study, sourced from an abattoir. The aorta specimens were processed by first removing the extraneous adipose and loose connective tissue debris from the external surface using surgical scissors. One cut was then performed along the longitudinal axis of each aortic tube, in order to obtain flat rectangular sheets. A surgical scalpel was used to make an initial cornerwise-interstitial incision between adventitia and media layers, and the adventitial layer was carefully dissected and peeled off by hand. […] The irradiance at the exposure site was monitored with the radiometer Dymax ACCU-CAL 50 (Dymax Corp., Torrington, CT, USA). […]
An Instron Materials Testing System Model #5943 (Instron, Norwood, MA, USA), equipped with a 50-N load cell, was used to measure uniaxially the tensile properties of isolated adventitia specimens (n=30), prior to and after irradiation. […] Strips (1 cm×3 cm) were cut, and their thickness and width were measured with a digital caliper (Digimax Global Inc., Toronto, Canada). […] The values for Young's moduli were computed from the recorded stress-strain plots in the linear region.
Irradiation was conducted in the presence of a solution of riboflavin 5′-phosphate monosodium salt in saline in accordance with the procedure of Example 1. The results were expressed as mean values±standard error of the mean. […]

[2] = tested on: isolated porcine aortic adventitia subjected to collagenase; experiment: Uniaxial tensile testing of enzymatically degraded (collagenolysis) isolated porcine aortic adventitia; conditions: collagenase 20 U/mL, 8 or 20 hours, UV-A 365 nm, 45 mW/cm^2, 10 minutes
Description: An Instron Materials Testing System Model #5943 (Instron, Norwood, MA, USA), equipped with a 50-N load cell, was used to measure uniaxially the tensile properties of isolated adventitia specimens (n=30), prior to and after irradiation. Irradiation was conducted in the presence of a solution of riboflavin 5′-phosphate monosodium salt in saline in accordance with the procedure of Example 1. Before measurements, each specimen was soaked in phosphate buffered saline (PBS) for at least 1 hour at room temperature. Strips (1 cm×3 cm) were cut, and their thickness and width were measured with a digital caliper (Digimax Global Inc., Toronto, Canada). Thirty measurements for specimens in each set of samples (non-irradiated and irradiated) were carried out along the longitudinal direction at a set gauge distance of 16 mm and a speed of 10 mm/min. The values for Young's moduli were computed from the recorded stress-strain plots in the linear region.
Thirty porcine adventitial specimens were isolated and exposed to UV-A radiation as described in Example 1. Irradiation was conducted in the presence of a solution of riboflavin 5′-phosphate monosodium salt in saline in accordance with the procedure of Example 1. Non-irradiated and irradiated adventitial specimens, as sets of 10 pieces each (5 cm×3 cm), were soaked in saline for 1 hour with gentle shaking, and then placed into the wells of 6-well plates. A solution containing 20 U/mL (˜0.08 mg/mL) collagenase was prepared in Tris buffer (0.05 M, pH 7.4), which also contained calcium chloride (10 mM) and sodium azide (0.02%). To each well, 5 mL of this solution was added to cover the samples. The well plates were placed in an orbital shaker and shaken at 160 rpm for either 8 hours or 20 hours at 37° C. […]
The three sets of adventitial specimens designated as (1), (2) and (3) in Example 5 were evaluated by uniaxial tensile testing following the procedure described in Example 2. […]

[3] = tested on: isolated porcine aortic adventitia; experiment: Biaxial tensile measurements on isolated porcine aortic adventitia; conditions: 25% stretch, UV-A 365 nm, 45 mW/cm^2, 10 minutes, n=23
Description: Twenty-three porcine aortas from the abdominal region were used in this study and processed initially as described in Example 1. Irradiation was conducted in the presence of a solution of riboflavin 5′-phosphate monosodium salt in saline in accordance with the procedure of Example 1. The isolated adventitial specimens were then cut into squares of 14 mm×14 mm, and thickness was measured with a digital caliper at three spots and averaged. The tensile properties were measured and recorded biaxially in the CS BioTester™ 5000 biotesting system (CellScale Biomaterials Testing, Waterloo, ON, Canada), equipped with two 2.5-N load cells, using a set of four BioRakes™ that consisted each of 5 tungsten tines spaced evenly. All samples were submerged in a temperature-controlled bath containing PBS at 37° C., and tested by stretching the gripped area (11 mm×11 mm) to 25% of total stretch, at a rate of 1%/s. The samples were preconditioned for 10 cycles, and the tenth cycle was used for subsequent analysis. Assuming that tissue was incompressible and had negligible shear components, the Cauchy stress (σ) was determined with the equations: […]
In these equations, F is the measured load, λ is the stretch, X is the initial length, T is the averaged initial thickness of the tissue sample. […] The stretch was calculated as follows: […]
These characteristics were evaluated for 25% stretch (strain). […]

Cc1cc2nc3c(=O)[nH]c(=O)nc-3n(C[C@H](O)[C@H](O)[C@H](O)COP(=O)([O-])O)c2cc1C.[Na+] [riboflavin 5′-phosphate monosodium salt]
Young's modulus (stiffness), difference between non-irradiated and irradiated specimens ([1]; p=0.0012): statistically significant
ultimate stress (maximum load at the time of rupture), difference between non-irradiated and irradiated specimens ([1]; p=0.0015): statistically significant
Young's modulus (stiffness) vs degradation time, samples first irradiated then subjected to collagenolysis (I/D) compared with D and D/I ([2]; 37° C., n=30): highest
ultimate stress (strength) vs degradation time, samples first irradiated then subjected to collagenolysis (I/D) compared with D and D/I ([2]; 37° C., n=30): highest
statistical differences between degraded non-irradiated samples (D) and those irradiated after degradation (D/I), modulus and stress ([2]; p~0.2-0.5): low significance
Cauchy stress, difference between non-irradiated and irradiated specimens ([3]; circumferential (p=1.4×10^−3) and longitudinal (p=5.3×10^−4)): high level of statistical significance
tangent modulus (stiffness), difference between non-irradiated and irradiated specimens ([3]; circumferential (p=6.8×10^−5) and longitudinal (p=7.1×10^−5)): high level of statistical significance

Reference: US20240148940A1, “METHODS OF INHIBITION” (Queensland Eye Institute Foundation, priority 2022, published 2024)
